Laboratory results published in publication PMC5192466, “Kunitz-Type Peptide HCRG21 from the Sea Anemone Heteractis crispa Is a Full Antagonist of the TRPV1 Receptor” (Marine Drugs, 2016).
Entries after “also recorded” stand apart in the source; their conditions may differ. Bridges are numbered along the chain shown (N, C = ends). Where no end group is shown, it is not given here.

How the values were obtained:
TRPV1 = target: T1, TRPV1 (Rattus norvegicus, UniProt O35433); experiment: cell-based
T1 construct: expressed in transfected cells; host or cells: Xenopus laevis oocytes injected with cRNA
Method: To control the expression level of the TRPV1 channels, experiments were initiated with a first activation of TRPV1 with 1 μM capsaicin (CAP). […] This activation gives an inward non-selective cation current. […] Before application of HCRG21, cells are washed with ND96 to remove any presence of […]. […] However, when rHCRG21 was co-applied together with the agonist capsaicin, a reduction of the current was observed (Figure 5b). […] A concentration–response curve was constructed in order to assess the concentration dependence of the rHCRG21 induced effect. The IC50 value yielded 6.9 ± 0.4 μM (Figure 5c).
Figure 5 Activity profile of rHCRG21 (10 μM) on the TRPV1 receptor. The figures show the results of one representative experiment. Whole-cell current traces in control and rHCRG21 conditions are shown. […] All data represent the average of at least three independent experiments (n ≥ 3) and are presented as mean ± standard error; (c) Concentration–response curve for rHCRG21 on TRPV1 receptor.
For the expression of rKv1.1, hKv1.3, rKv1.4, rKv1.5, rKv1.6, Shaker IR, hERG, and TRPV1 in Xenopus oocytes, the linearized plasmids were transcribed using the T7 or SP6 mMESSAGE-mMACHINE transcription kit (Ambion, Austin, TX, USA). The harvesting of stage V–VI oocytes from anaesthetized female Xenopus laevis frog was previously described. Oocytes were injected with 50 nL of cRNA at a concentration of 1 ng/nL using a micro-injector (Drummond Scientific, Broomall, PA, USA). The oocytes were incubated in a solution containing (in mM): NaCl, 96; KCl, 2; CaCl2, 1.8; MgCl2, 2 and HEPES, 5 (pH 7.4), supplemented with 50 mg/L gentamicin sulfate.
Two-electrode voltage-clamp recordings were performed at room temperature (18–22 °C) using a Geneclamp 500 amplifier (Molecular Devices, Sunnyvale, CA, USA) controlled by a pClamp data acquisition system (Axon Instruments, Foster City, CA, USA). Whole cell currents from oocytes were recorded 1–4 days after injection. Bath solution composition was ND96 (in mM): NaCl, 96; KCl, 2; CaCl2, 1.8; MgCl2, 2, and HEPES, 5 (pH 7.4). Voltage and current electrodes were filled with 3 M KCl. Resistances of both electrodes were kept between 0.8 and 1.5 MΩ. The elicited currents were filtered and sampled at, respectively, 1 kHz and 10 kHz (for potassium currents) and at, respectively, 0.2 kHz and 0.5 kHz (for TRPV1 currents), using a four-pole low-pass Bessel filter. Leak subtraction was performed using a –P/4 protocol. KV1.1–KV1.6 and Shaker currents were evoked by 500 ms depolarizations to 0 mV followed by a 500 ms pulse to −50 mV, from a holding potential of −90 mV. Current traces of hERG channels were elicited by applying a +40 mV prepulse for 2 s followed by a step to −120 mV for 2 s. TRPV1 currents were measured in ND96 solution using a protocol of −90 mV during 400 s. The recording chamber was perfused at a rate of 2 mL·min^−1 with a ND96 solution. As previously described, capsaicin (2 μM) was used as an agonist and capsazepine (10 μM) as an antagonist of TRPV1. Capsaicin and capsazepine were purchased from Sigma. All data represent at least 3 independent experiments (n ≥ 3) in which independent experiments represent experiments on different cells expressing TRPV1 channel and are presented as mean ± standard error.

Kv1.2 = Kv1.2 currents, two-electrode voltage-clamp in Xenopus laevis oocytes; assay type: cell-based; conditions: 10 μM peptide, n ≥ 3; holding −90 mV, 500 ms to 0 mV; ND96 pH 7.4
Method: (§1) In order to characterize HCRG21 functionally, recombinant HCRG21 was, at a concentration of 10 μM, tested for its activity against an 8 voltage-gated potassium channels (Kv1.1–Kv1.6, hERG, and Shaker IR) and the vanilloid receptor 1 (TRPV1).
(§2) Figure 4 Activity of rHCRG21 on Kv channels expressed in X. laevis oocytes. Traces shown are representative of at least three independent experiments (n ≥ 3). The dotted line indicates the zero current level. The asterisk (*) distinguishes the steady-state current after application of 10 μM peptide.
Two-electrode voltage-clamp recordings were performed at room temperature (18–22 °C) using a Geneclamp 500 amplifier (Molecular Devices, Sunnyvale, CA, USA) controlled by a pClamp data acquisition system (Axon Instruments, Foster City, CA, USA). Whole cell currents from oocytes were recorded 1–4 days after injection. Bath solution composition was ND96 (in mM): NaCl, 96; KCl, 2; CaCl2, 1.8; MgCl2, 2, and HEPES, 5 (pH 7.4). Voltage and current electrodes were filled with 3 M KCl. Resistances of both electrodes were kept between 0.8 and 1.5 MΩ. The elicited currents were filtered and sampled at, respectively, 1 kHz and 10 kHz (for potassium currents) and at, respectively, 0.2 kHz and 0.5 kHz (for TRPV1 currents), using a four-pole low-pass Bessel filter. […] TRPV1 currents were measured in ND96 solution using a protocol of −90 mV during 400 s. […]

rKv1.4 = experiment: Kv1.4 currents, two-electrode voltage-clamp in Xenopus laevis oocytes; assay type: cell-based; conditions: 10 μM peptide, n ≥ 3; holding −90 mV, 500 ms to 0 mV; ND96 pH 7.4
Method: as §1, §2
(§3) For the expression of rKv1.1, hKv1.3, rKv1.4, rKv1.5, rKv1.6, Shaker IR, hERG, and TRPV1 in Xenopus oocytes, the linearized plasmids were transcribed using the T7 or SP6 mMESSAGE-mMACHINE transcription kit (Ambion, Austin, TX, USA). The harvesting of stage V–VI oocytes from anaesthetized female Xenopus laevis frog was previously described. […]
(§4) Two-electrode voltage-clamp recordings were performed at room temperature (18–22 °C) using a Geneclamp 500 amplifier (Molecular Devices, Sunnyvale, CA, USA) controlled by a pClamp data acquisition system (Axon Instruments, Foster City, CA, USA). Whole cell currents from oocytes were recorded 1–4 days after injection. […] TRPV1 currents were measured in ND96 solution using a protocol of −90 mV during 400 s. […]

rKv1.5 = experiment: Kv1.5 currents, two-electrode voltage-clamp in Xenopus laevis oocytes; assay type: cell-based; conditions: 10 μM peptide, n ≥ 3; holding −90 mV, 500 ms to 0 mV; ND96 pH 7.4
Method: as §1, §2, §3, §4

hERG = hERG currents, two-electrode voltage-clamp in Xenopus laevis oocytes; assay type: cell-based; conditions: 10 μM peptide, n ≥ 3; +40 mV prepulse 2 s, then −120 mV 2 s; ND96 pH 7.4
Method: as §1, §2, §3, §4

hKv1.3 = experiment: Kv1.3 currents, two-electrode voltage-clamp in Xenopus laevis oocytes; assay type: cell-based; conditions: 10 μM peptide, n ≥ 3; holding −90 mV, 500 ms to 0 mV; ND96 pH 7.4
Method: as §1, §2, §3, §4

Shaker IR = Shaker IR currents, two-electrode voltage-clamp in Xenopus laevis oocytes; assay type: cell-based; conditions: 10 μM peptide, n ≥ 3; holding −90 mV, 500 ms to 0 mV; ND96 pH 7.4
Method: as §1, §2, §3, §4

rKv1.1 = experiment: Kv1.1 currents, two-electrode voltage-clamp in Xenopus laevis oocytes; assay type: cell-based; conditions: 10 μM peptide, n ≥ 3; holding −90 mV, 500 ms to 0 mV; ND96 pH 7.4
Method: as §1, §2, §3, §4

rKv1.6 = experiment: Kv1.6 currents, two-electrode voltage-clamp in Xenopus laevis oocytes; assay type: cell-based; conditions: 10 μM peptide, n ≥ 3; holding −90 mV, 500 ms to 0 mV; ND96 pH 7.4
Method: as §1, §2, §3, §4

α-chymotrypsin = α-chymotrypsin (Bos taurus, UniProt P00766); experiment: α-Chymotrypsin inhibition (Dixon method, BTEE substrate); assay type: biochemical; conditions: 133 and 65 mM, enzyme 215 nM, peptide 0 up to 3.2 mM, three parallel experiments
Method: (§5) The trypsin/α-chymotrypsin inhibitory activity of the peptide was tested through the standard procedure using N-α-benzoyl-D,L-arginine p-nitroanilide hydrochloride (BAPNA) and ethyl ester of N-benzoyl-L-tyrosine (BTEE) as a substrates, respectively. Determination of the trypsin/α-chymotrypsin inhibition constants of rHCRG21 was performed according to the method of Dixon using substrates concentrations of 133 and 65 mM. The concentration of both enzymes in the reaction mixture was 215 nM. Concentrations of the tested peptide ranged from 0 up to 3.2 mM. The constants were calculated based on the results of three parallel experiments. Computational error limits are in the range of 0.1%–0.5%.

trypsin = experiment: Trypsin inhibition (Dixon method, BAPNA substrate); assay type: biochemical
Method: as §5

T1 sequence (O35433 whole entry): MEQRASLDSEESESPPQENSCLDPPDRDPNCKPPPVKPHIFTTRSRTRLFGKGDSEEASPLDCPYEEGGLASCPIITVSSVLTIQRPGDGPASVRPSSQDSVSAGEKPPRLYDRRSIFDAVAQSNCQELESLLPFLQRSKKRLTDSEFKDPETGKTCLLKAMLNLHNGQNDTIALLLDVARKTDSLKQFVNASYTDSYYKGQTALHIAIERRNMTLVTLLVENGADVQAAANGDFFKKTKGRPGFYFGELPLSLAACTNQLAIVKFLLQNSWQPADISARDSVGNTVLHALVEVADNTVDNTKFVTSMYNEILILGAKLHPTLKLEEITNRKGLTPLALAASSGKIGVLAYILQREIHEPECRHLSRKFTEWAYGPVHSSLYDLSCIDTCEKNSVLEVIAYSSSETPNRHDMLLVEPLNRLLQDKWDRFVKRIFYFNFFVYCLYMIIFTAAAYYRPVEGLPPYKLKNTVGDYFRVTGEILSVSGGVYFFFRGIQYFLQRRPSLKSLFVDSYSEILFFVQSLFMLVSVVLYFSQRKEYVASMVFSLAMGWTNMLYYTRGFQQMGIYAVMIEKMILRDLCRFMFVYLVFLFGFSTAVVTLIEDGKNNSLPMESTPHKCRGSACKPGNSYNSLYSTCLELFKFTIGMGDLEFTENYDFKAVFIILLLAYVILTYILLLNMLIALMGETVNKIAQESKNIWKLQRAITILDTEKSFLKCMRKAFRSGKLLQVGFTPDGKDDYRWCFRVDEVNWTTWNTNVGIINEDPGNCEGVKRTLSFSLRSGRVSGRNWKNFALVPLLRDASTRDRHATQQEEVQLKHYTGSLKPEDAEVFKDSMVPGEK

RGICSEPKVVGPCTAYFRRFYFDSETGKCTPFIYGGCEGNGNNFETLRACRAICRA (disulfide 4-54, 13-37, 29-50 (inferred)) [rHCRG21]
inhibition of capsaicin-induced TRPV1 current (TRPV1; 10 μM peptide co-applied with capsaicin (2 μM), −90 mV, ND96 pH 7.4, mean ± standard error, n ≥ 3): 59.3% ± 4.3%
effect on TRPV1 when administered alone (TRPV1; 10 μM, in the absence of capsaicin): did not show any significant effect; also recorded: Lack of effect
effect on TRPV1 when applied prior to capsaicin (TRPV1; applied prior to any stimulation of capsaicin, data not shown): no activity was seen
IC50 (TRPV1; co-applied with capsaicin (2 μM), −90 mV, ND96 pH 7.4, 18–22 °C, mean ± standard error, n ≥ 3, read-out: IC50, inhibition of capsaicin-induced TRPV1 current): 6900 ± 400 nM
effect on TRPV1 channel (conclusion) (TRPV1; electrophysiological data): strongly inhibits the TRPV1 channel
activity on Kv1.2 (Kv1.2): did not exert any activity
activity on Kv1.4 (rKv1.4): did not exert any activity
activity on Kv1.5 (rKv1.5): did not exert any activity
activity on hERG (hERG): did not exert any activity
activity on Kv1.3 (hKv1.3): did not exert any activity
activity on Shaker IR (Shaker IR): did not exert any activity
activity on Kv1.1 (rKv1.1): did not exert any activity
activity on Kv1.6 (rKv1.6): did not exert any activity
Ki (α-chymotrypsin): 700 nM
Ki (trypsin; Dixon method, BAPNA substrate, 133 and 65 mM, enzyme 215 nM, peptide 0 up to 3.2 mM, three parallel experiments): 200 nM
Trypsin inhibitory activity of HPLC fraction (trypsin; fraction marked rHCRG21 after RP-HPLC): Trypsin inhibitory activity was detected
